Patent US20260355212A1 (priority 2022, published 2026)
Like-named read-outs stand apart in the source and are kept apart here.

What was measured:
HCoV-229E Mpro = HCoV-229E Mpro (Human coronavirus 229E, UniProt P0C6X1); test: HCoV-229E Mpro enzymatic inhibition assay (fluorescence); format: biochemical
SARS-CoV-1 Mpro = SARS-CoV-1 Mpro (Severe acute respiratory syndrome coronavirus, UniProt P0C6X7); test: biochemical
HCoV-HKU1 Mpro = HCoV-HKU1 Mpro (Human coronavirus HKU1, UniProt P0C6X2); test: HCoV-HKU1 Mpro enzymatic inhibition assay (fluorescence); format: biochemical
How it was run: (§1)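 IC50 values derive from variable-slope nonlinear regression of percent inhibition, each point corrected by a compound-plus-substrate background well lacking enzyme. Enzyme, pre-incubated 30 min at room temperature with inhibitor, was given substrate and read fluorimetrically (Ex/Em 340/490 nm) after 60 min at 30 °C.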

MERS Mpro = MERS Mpro (Middle East respiratory syndrome-related coronavirus, UniProt K9N7C7); test: biochemical; set-up: species or system MERS-CoV
HCoV-OC43 Mpro = HCoV-OC43 Mpro (Human coronavirus OC43, UniProt P0C6X6); test: HCoV-OC43 Mpro enzymatic inhibition assay (fluorescence); format: biochemical
How it was run: as §1

HCoV-NL63 Mpro = HCoV-NL63 Mpro (Human coronavirus NL63, UniProt P0C6X5); test: HCoV-NL63 Mpro enzymatic inhibition assay (fluorescence); format: biochemical
How it was run: as §1

SARS-CoV-2 Mpro = SARS-CoV-2 Mpro (Severe acute respiratory syndrome coronavirus 2, UniProt P0DTD1); test: SARS-CoV-2 Mpro enzymatic inhibition assay (fluorescence); format: biochemical
How it was run: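 Recombinant Mpro expressed in E. coli was preincubated 30 min at room temperature with 10-point, 3-fold serially diluted compound in duplicate. Fluorogenic substrate was then added and incubated 60 min at 30° C, and fluorescence read at Ex/Em 340/490 nm. IC50 came from a four-parameter fit of % inhibition.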

[1] = mean, 25 nM protein, 25 μM substrate, 30 min pre-incubation, 60 min at 30° C., read-out: Mpro_SARS-CoV-2 mean IC50

Sequence of HCoV-NL63 Mpro (P0C6X5 2940-3242 limits assumed): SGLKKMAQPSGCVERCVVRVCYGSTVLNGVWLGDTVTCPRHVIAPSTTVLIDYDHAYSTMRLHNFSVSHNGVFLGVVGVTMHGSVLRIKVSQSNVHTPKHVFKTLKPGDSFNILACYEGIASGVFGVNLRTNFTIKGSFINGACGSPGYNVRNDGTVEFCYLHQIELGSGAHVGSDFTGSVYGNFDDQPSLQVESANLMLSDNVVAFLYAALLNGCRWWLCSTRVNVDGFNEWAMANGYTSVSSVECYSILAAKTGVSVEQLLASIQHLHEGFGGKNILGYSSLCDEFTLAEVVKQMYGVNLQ
Sequence of HCoV-OC43 Mpro (P0C6X6 3247-3549 limits assumed): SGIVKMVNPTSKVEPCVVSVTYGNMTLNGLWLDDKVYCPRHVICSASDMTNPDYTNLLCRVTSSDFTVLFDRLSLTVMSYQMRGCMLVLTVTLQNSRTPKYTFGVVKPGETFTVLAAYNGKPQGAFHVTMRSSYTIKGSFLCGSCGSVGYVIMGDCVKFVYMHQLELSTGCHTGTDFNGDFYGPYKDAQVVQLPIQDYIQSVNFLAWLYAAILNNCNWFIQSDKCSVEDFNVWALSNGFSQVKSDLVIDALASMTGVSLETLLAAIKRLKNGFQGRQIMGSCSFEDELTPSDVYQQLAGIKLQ
Sequence of HCoV-HKU1 Mpro (P0C6X2 3335-3637 limits assumed): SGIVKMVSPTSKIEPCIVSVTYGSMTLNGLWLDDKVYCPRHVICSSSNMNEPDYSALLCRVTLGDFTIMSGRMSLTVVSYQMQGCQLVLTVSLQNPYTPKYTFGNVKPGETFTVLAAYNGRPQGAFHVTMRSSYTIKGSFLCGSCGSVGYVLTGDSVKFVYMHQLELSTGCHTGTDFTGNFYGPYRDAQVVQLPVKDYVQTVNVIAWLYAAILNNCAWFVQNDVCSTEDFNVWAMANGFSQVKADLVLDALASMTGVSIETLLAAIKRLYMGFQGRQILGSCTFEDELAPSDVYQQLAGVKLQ
Sequence of MERS Mpro (K9N7C7 3248-3553 limits assumed): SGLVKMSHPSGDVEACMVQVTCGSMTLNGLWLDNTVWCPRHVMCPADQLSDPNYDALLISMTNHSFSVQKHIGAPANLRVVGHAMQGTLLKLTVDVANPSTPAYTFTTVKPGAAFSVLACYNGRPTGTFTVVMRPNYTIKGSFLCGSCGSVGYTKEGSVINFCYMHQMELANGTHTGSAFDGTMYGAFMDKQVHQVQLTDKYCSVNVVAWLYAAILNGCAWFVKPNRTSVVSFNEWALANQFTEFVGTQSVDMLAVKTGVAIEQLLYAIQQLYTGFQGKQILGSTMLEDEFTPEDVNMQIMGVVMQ
Sequence of HCoV-229E Mpro (P0C6X1 2966-3267 limits assumed): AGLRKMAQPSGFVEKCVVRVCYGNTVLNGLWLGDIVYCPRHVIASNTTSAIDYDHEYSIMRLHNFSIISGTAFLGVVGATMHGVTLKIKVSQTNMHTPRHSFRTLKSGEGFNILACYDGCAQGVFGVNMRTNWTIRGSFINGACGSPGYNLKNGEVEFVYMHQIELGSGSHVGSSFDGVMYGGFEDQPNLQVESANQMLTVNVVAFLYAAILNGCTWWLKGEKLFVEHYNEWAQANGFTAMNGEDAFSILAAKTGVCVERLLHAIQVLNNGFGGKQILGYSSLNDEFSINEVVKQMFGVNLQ

Structure (SMILES) | IC50 (HCoV-229E Mpro) [nM] | IC50 (SARS-CoV-1 Mpro) [nM] | IC50 (HCoV-HKU1 Mpro) [nM] | IC50 (MERS Mpro) [nM] | IC50 (HCoV-OC43 Mpro) [nM] | IC50 (HCoV-NL63 Mpro) [nM] | IC50 (SARS-CoV-2 Mpro) [nM] | IC50 (SARS-CoV-2 Mpro; [1]) [nM]
N#Cc1ccc2cc(C(=O)N3CC4(CC4)C[C@H]3C(=O)N[C@H](C=O)C[C@@H]3CCNC3=O)[nH]c2c1 [Compound 82, (S)-5-(6-Cyano-1H-indole-2-carbonyl)-N—((S)-1-oxo-3-((S)-2-oxopyrrolidin-3-yl)propan-2-yl)-5-azaspiro[2.4]heptane-6-carboxamide] | 26.1 | 35.1 | 10.6 | 176 | 33.7 | 30.1 | 35.5 | –
CC1(C)[C@@H]2[C@@H](C(=O)N[C@H](C=O)C[C@@H]3CCNC3=O)N(C(=O)c3cc4ncccc4[nH]3)C[C@@H]21 [Compound 83, (1R,2S,5S)-6,6-dimethyl-N—((S)-1-oxo-3-((S)-2-oxopyrrolidin-3-yl)propan-2-yl)-3-(1H-pyrrolo[3,2-b]pyridine-2-carbonyl)-3-azabicyclo[3.1.0]hexane-2-carboxamide] | 46.3 | 116 | 39 | 436 | 81.3 | 58.9 | 35.5 | –
O=C[C@H](C[C@@H]1CCNC1=O)NC(=O)[C@@H]1CC2(CCC2)CN1C(=O)C1(c2ccccc2)CC1 [Compound 84, (S)—N—((S)-1-Oxo-3-((S)-2-oxopyrrolidin-3-yl)propan-2-yl)-6-(1-phenylcyclopropanecarbonyl)-6-azaspiro[3.4]octane-7-carboxamide] | 47.6 | 88.3 | 17.3 | 703 | 41.2 | 185 | 36 | –
Cc1cccc2[nH]c(C(=O)N3C[C@H]4[C@@H]([C@H]3C(=O)N[C@H](C=O)C[C@@H]3CCNC3=O)C4(C)C)cc12 [Compound 85, (1R,2S,5S)-6,6-Dimethyl-3-(4-methyl-1H-indole-2-carbonyl)-N—((S)-1-oxo-3-((S)-2-oxopyrrolidin-3-yl)propan-2-yl)-3-azabicyclo[3.1.0]hexane-2-carboxamide] | 34.6 | 48.2 | 23.2 | 259 | 47.9 | 53.2 | – | 36.7
CC1(C)[C@@H]2[C@@H](C(=O)N[C@H](C=O)C[C@@H]3CCNC3=O)N(C(=O)CC3CCOCC3)C[C@@H]21 [Compound 86, (1R,2S,5S)-6,6-Dimethyl-N—((S)-1-oxo-3-((S)-2-oxopyrrolidin-3-yl)propan-2-yl)-3-(2-(tetrahydro-2H-pyran-4-yl)acetyl)-3-azabicyclo[3.1.0]hexane-2-carboxamide] | 34.2 | 69.5 | 33.7 | 318 | 52.5 | 78.8 | 39.7 | –
CC(C)c1ccc(Cl)c2[nH]c(C(=O)N3C[C@H]4[C@@H]([C@H]3C(=O)N[C@H](C=O)C[C@@H]3CCNC3=O)C4(C)C)cc12 [Compound 88, (1R,2S,5S)-3-(7-Chloro-4-isopropyl-1H-indole-2-carbonyl)-6,6-dimethyl-N—((S)-1-oxo-3-((S)-2-oxopyrrolidin-3-yl)propan-2-yl)-3-azabicyclo[3.1.0]hexane-2-carboxamide] | 41.5 | 46.2 | 21.2 | 239 | 44.9 | 68.5 | – | 40.3
CC1(C)[C@@H]2[C@@H](C(=O)N[C@H](C=O)C[C@@H]3CCNC3=O)N(C(=O)c3cc4cc(Cl)ccc4[nH]3)C[C@@H]21 [Compound 89, (1R,2S,5S)-3-(5-Chloro-1H-indole-2-carbonyl)-6,6-dimethyl-N—((S)-1-oxo-3-((S)-2-oxopyrrolidin-3-yl)propan-2-yl)-3-azabicyclo[3.1.0]hexane-2-carboxamide] | 44.7 | 65.4 | 31 | 395 | 88.5 | 69.5 | 40.9 | –
Cn1c(C(=O)N2C[C@H]3[C@@H]([C@H]2C(=O)N[C@H](C=O)C[C@@H]2CCNC2=O)C3(C)C)cc2cc(Cl)ccc21 [Compound 90, (1R,2S,5S)-3-(5-Chloro-1-methyl-1H-indole-2-carbonyl)-6,6-dimethyl-N—((S)-1-oxo-3-((S)-2-oxopyrrolidin-3-yl)propan-2-yl)-3-azabicyclo[3.1.0]hexane-2-carboxamide] | 60.5 | 79.4 | 48 | 655 | 130 | 202 | 43.6 | –
COc1cccc2cc(C(=O)N3C[C@H]4[C@@H]([C@H]3C(=O)N[C@H](C=O)C[C@@H]3CCNC3=O)C4(C)C)[nH]c12 [Compound 91, (1R,2S,5S)-3-(7-Methoxy-1H-indole-2-carbonyl)-6,6-dimethyl-N—((S)-1-oxo-3-((S)-2-oxopyrrolidin-3-yl)propan-2-yl)-3-azabicyclo[3.1.0]hexane-2-carboxamide] | 92.9 | 83.3 | 61.1 | 396 | 110 | 215 | – | 43.9
C[C@H](C(=O)N1C[C@H]2[C@@H]([C@H]1C(=O)N[C@H](C=O)C[C@@H]1CCNC1=O)C2(C)C)C1CCCCC1 [Compound 92, (1R,2S,5S)-3-((S)-2-Cyclohexylpropanoyl)-6,6-dimethyl-N—((S)-1-oxo-3-((S)-2-oxopyrrolidin-3-yl)propan-2-yl)-3-azabicyclo[3.1.0]hexane-2-carboxamide] | 43.9 | 89.6 | 39.4 | 418 | 109 | 162 | – | 45
Cc1ccc2[nH]c(C(=O)N3C[C@H]4[C@@H]([C@H]3C(=O)N[C@H](C=O)C[C@@H]3CCNC3=O)C4(C)C)cc2c1 [Compound 93, (1R,2S,5S)-6,6-Dimethyl-3-(5-methyl-1H-indole-2-carbonyl)-N—((S)-1-oxo-3-((S)-2-oxopyrrolidin-3-yl)propan-2-yl)-3-azabicyclo[3.1.0]hexane-2-carboxamide] | 32.9 | 73.2 | 24 | 317 | 55.1 | 53.2 | 45.1 | –
CC1(C)[C@@H]2[C@@H](C(=O)N[C@H](C=O)C[C@@H]3CCNC3=O)N(C(=O)C3(O)CCCCC3)C[C@@H]21 [Compound 94, (1R,2S,5S)-3-(1-Hydroxycyclohexanecarbonyl)-6,6-dimethyl-N—((S)-1-oxo-3-((S)-2-oxopyrrolidin-3-yl)propan-2-yl)-3-azabicyclo[3.1.0]hexane-2-carboxamide] | 69.9 | 115 | 180 | 568 | 231 | 344 | – | 45.1
CC(C)(C)CC(=O)N1C[C@H]2[C@@H]([C@H]1C(=O)N[C@H](C=O)C[C@@H]1CCNC1=O)C2(C)C [Compound 95, (1R,2S,5S)-3-(3,3-Dimethylbutanoyl)-6,6-dimethyl-N—((S)-1-oxo-3-((S)-2-oxopyrrolidin-3-yl)propan-2-yl)-3-azabicyclo[3.1.0]hexane-2-carboxamide] | 67.5 | 100 | 64.4 | 413 | 124 | 189 | – | 45.5
